Experimental data: EP4324461A1, “(E)-N-CINAMOYLAMINOALKANOLES WITH MELANOGENESIS INHIBITORY ACTIVITY” (UNIWERSYTET JAGIELLONSKI, priority 2022, dated 2024)

Tests used:
neuroblastoma SH-SY5Y [1] = test: Safety, LDH test in SH-SY5Y; assay type: cell-based; details: 48 hours, positive control Triton X-100
Protocol: (§1) In order to test the safety of the compounds, both normal human cells were used: keratinocytes (HaCaT), fibroblasts (BJ), primary melanocytes that occur in the skin, as well as human cancer cells: the hepatocarcinoma line HepG2 and the neuroblastoma line SH-SY5Y, which are considered a model for the assessment of hepatocytotoxicity and neurocytotoxicity. The concentrations of the tested compounds in the range of 250-100 µM were used in the studies. The cell lines used in the research were purchased from the American Type Culture Collection (ATCC) and were cultured in media recommended by the manufacturer with the addition of FBS and antibiotics in an incubator ensuring appropriate culture conditions, i.e. humidity, temperature and CO2 concentration. Cells were seeded into multiwell plates and incubated with the test compounds for 48 hours. After this time, MTT and LDH tests were performed to assess cell viability. The MTT test is based on the ability to transform the substrate: [3-(4,5-dimethyl-2-thiazolyl)-2,5-diphenyl-2H-tetrazolium bromide into a colored product only by living cells. The absorbance at 570 nm, which corresponds to the absorption maximum for the product, is directly proportional to cell viability. The LDH test is based on testing the activity of the enzyme lactate dehydrogenase in the culture medium, which is released from cells as a result of damage to the cell membrane, e.g. as a result of cell death. Triton X-100 was used as a positive control in the test. The determination is colorimetric, the substrate is transformed by the released enzyme into a colored product, an increase in absorbance indicates a larger amount of the released enzyme, and thus confirms greater damage to cell membranes. Tables 7 and 8 present the results obtained, which correspond to the viability of cells incubated with the compounds in relation to the viability of cells constituting a control sample, i.e. incubated with the solvent (DMSO) at the same concentration as in the case of the groups tested in the MTT test or in relation to the results obtained for the Triton X-100 positive control in the LDH test. They indicate that the compounds are safe at the concentrations tested. Table 7. Viability of tested normal human cell lines: keratinocytes (HaCaT), fibroblasts (BJ) and primary melanocytes after incubation with the tested compounds - determination in the MTT test (% of solvent control ± SD) and LDH (percentage of positive control - Triton X-100.

Hepatocarcinoma HepG2 = test: Safety, MTT test in HepG2; assay type: cell-based; details: 48 hours
Protocol: as §1

Keratinocytes (HaCaT) = test: Safety, LDH test in keratinocytes; assay type: cell-based; details: 48 hours, positive control Triton X-100
Protocol: as §1

neuroblastoma SH-SY5Y [2] = test: Safety, MTT test in SH-SY5Y; assay type: cell-based; details: 48 hours
Protocol: as §1

[3] = test system: Chinese hamster ovary cell line (CHO-K1); test: Cytotoxicity in CHO-K1 cells (MTT) before the micronucleus test; assay type: cell-based; details: 24 hours
Protocol: The assay was performed using a Chinese hamster ovary cell line (CHO-K1) purchased from the American Type Culture Collection (ATCC). The cells were cultured in F-12K medium with the addition of 10% fetal bovine serum (FBS) and antibiotics (streptomycin/penicillin) in an incubator at 37 °C and 5% CO2 concentration). Before the actual micronucleus test, a cytotoxicity assessment was performed to ensure that the actual test was performed only at safe concentrations. For this purpose, cells were transferred to 96-well plates and incubated with the tested compounds for 24 hours. After this time, the MTT test was performed and cell viability was assessed in comparison to the control group (cells cultured with DMSO at the same concentration as in the case of the tested samples).

S. typhimurium TA98 = test: Ames microplate test, TA98; assay type: cell-based, Salmonella typhimurium;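 note: reference level is the mean solvent-control yellow wells plus SD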
Protocol: Bacteria were grown overnight in growth medium.
Table 9. Ames microplate test results.

E. coli WP2 = test: Ames microplate test, E. coli WP2;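 note: bacteria treated 90 min at 37 °C in 24-well plates, then indicator medium dispensed to 384-well plates and incubated 48 h before yellow-well counting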

SMILES | Neuroblastoma SH-SYSY LDH (neuroblastoma SH-SY5Y [1]; 100 µM) | Neuroblastoma SH-SYSY LDH (neuroblastoma SH-SY5Y [1]; 150 µM) | Neuroblastoma SH-SYSY LDH (neuroblastoma SH-SY5Y [1]; 200 µM) | Neuroblastoma SH-SYSY LDH (neuroblastoma SH-SY5Y [1]; 250 µM) | Hepatocarcinoma HepG2 MTT (Hepatocarcinoma HepG2; 100 µM) | Hepatocarcinoma HepG2 MTT (Hepatocarcinoma HepG2; 150 µM) | Hepatocarcinoma HepG2 MTT (Hepatocarcinoma HepG2; 200 µM) | Hepatocarcinoma HepG2 MTT (Hepatocarcinoma HepG2; 250 µM) | Keratinocytes (HaCaT) LDH (Keratinocytes (HaCaT); 100 µM) | Keratinocytes (HaCaT) LDH (Keratinocytes (HaCaT); 150 µM) | Keratinocytes (HaCaT) LDH (Keratinocytes (HaCaT); 200 µM) | Keratinocytes (HaCaT) LDH (Keratinocytes (HaCaT); 250 µM) | Neuroblastoma SH-SYSY MTT (neuroblastoma SH-SY5Y [2]; 100 µM) | Neuroblastoma SH-SYSY MTT (neuroblastoma SH-SY5Y [2]; 150 µM) | Neuroblastoma SH-SYSY MTT (neuroblastoma SH-SY5Y [2]; 200 µM) | Neuroblastoma SH-SYSY MTT (neuroblastoma SH-SY5Y [2]; 250 µM) | further results
O=C(/C=C/c1ccc(Cl)cc1)NCCCO [H-330/21, (2E)-3-(4-chlorophenyl)-N-(3-hydroxypropyl)prop-2-enamide] | 6.19 percentage of positive control | 4.90 percentage of positive control | 8.35 percentage of positive control | 13.41 percentage of positive control | 100.73±4.51 % of solvent control | 100.44±3.93 % of solvent control | 100.86±6.41 % of solvent control | 93.16±1.71 % of solvent control | 3.66 percentage of positive control | 5.33 percentage of positive control | 17.03 percentage of positive control | 24.24 percentage of positive control | 99.79±5.34 % of solvent control | 99.86±3.76 % of solvent control | 99.79±3.97 % of solvent control | 99.11±3.66 % of solvent control | –
O=C(/C=C/c1ccccc1)NCCCCCCO [H-425/21, (E)-N-(6-hydroxyhexyl)cinnamic acid amide] | – | – | – | – | – | – | – | – | – | – | – | – | – | – | – | – | % Viability [mean] ([3]; 100 µM): 87.6%; % Viability [mean] ([3]; 150 µM): 83.8%; % Viability [mean] ([3]; 200 µM): 88.0%; Increase in the number of yellow wells compared to the reference level (S. typhimurium TA98; 0.5 mM, +S9): 0.42; Increase in the number of yellow wells compared to the reference level (S. typhimurium TA98; 0.5 mM, without S9): 0.27; Increase in the number of yellow wells compared to the reference level (S. typhimurium TA98; 1.0 mM, +S9): 0.42; Increase in the number of yellow wells compared to the reference level (S. typhimurium TA98; 1.0 mM, without S9): 0.54; Increase in the number of yellow wells compared to the reference level (S. typhimurium TA98; 2.0 mM, +S9): 0.63; Increase in the number of yellow wells compared to the reference level (S. typhimurium TA98; 2.0 mM, without S9): 0.80; Increase in the number of yellow wells compared to the reference level (E. coli WP2; 0.5 mM, +S9): 0.75; Increase in the number of yellow wells compared to the reference level (E. coli WP2; 0.5 mM, without S9): 0.17; Increase in the number of yellow wells compared to the reference level (E. coli WP2; 1.0 mM, +S9): 0.83; Increase in the number of yellow wells compared to the reference level (E. coli WP2; 1.0 mM, without S9): 0.67; Increase in the number of yellow wells compared to the reference level (E. coli WP2; 2.0 mM, +S9): 0.75; Increase in the number of yellow wells compared to the reference level (E. coli WP2; 2.0 mM, without S9): 1.00
O=C(/C=C/c1ccc(Cl)cc1)NCCO [H-427/21, (2E)-3-(4-chlorophenyl)-N-(2-hydroxyethyl)prop-2-enamide] | 3.09 percentage of positive control | 4.45 percentage of positive control | 5.98 percentage of positive control | 8.87 percentage of positive control | 99.61±4.37 % of solvent control | 98.44±3.94 % of solvent control | 97.07±4.00 % of solvent control | 100.08±10.58 % of solvent control | 2.76 percentage of positive control | 3.69 percentage of positive control | 6.50 percentage of positive control | 17.79 percentage of positive control | 100.48±3.67 % of solvent control | 100.96±2.72 % of solvent control | 101.30±2.94 % of solvent control | 102.60±9.66 % of solvent control | –
